Experimental data taken from patent US20220287970A1, “COMPOSITION FOR INHIBITING SAPONIN-INDUCED HEMOLYSIS, CONTAINING CATIONIC LIPOSOME” (priority 2020, published 2022).

Experiments:
[1] = tested on: red blood cells (RBCs); assay: Hemolysis analysis: steroidal and triterpenoid saponins (Example 5); format: cell-based; settings: saponin alone
Protocol: 1) The liposome, saponin, sucrose in a HEPES buffer (pH 7.4), and distilled water were placed in a 96-well plate, as shown in Tables 14 and 15 below.
2) The reaction was carried out at room temperature and 300 rpm for 30 minutes using an orbital shaker.
3) 3 mL of RBCs were suspended in 10 mL of PBS and centrifuged at room temperature and 1500 rpm for 5 minutes, after which the supernatant was removed.
4) Steps 2) and 3) were repeated three times, and thus the RBCs were washed.
5) The RBC pellet was suspended in 1 mL of PBS and diluted to 1/100, followed by cell counting.
6) The RBCs were diluted to 1.5×10^9 cells/mL using PBS and dispensed at 3×10^7 cells/20 μL/well in a 96-well plate treated with the test material of 2) above.
7) The reaction was carried out at room temperature and 300 rpm for 1 hour using an orbital shaker.
8) The 96-well plate was centrifuged at room temperature and 1500 rpm for 5 minutes.
9) 50 μL of the supernatant was transferred to a new 96-well plate, and the absorbance was then measured at 415 nm.
10) Hemolysis (%) was calculated using the following equation.
(§1) Hemolysis (%)=(OD of sample OD of 0% hemolysis)/(0D of 100% hemolysis−OD of 0% hemolysis)×100

[2] = tested on: red blood cells (RBCs); assay: Hemolysis analysis: cationic liposome screening vs crude saponin and QS21 (Example 3); format: cell-based; settings: saponin alone
Protocol: 1) After freeze-drying, the liposome stored in the glass vial was hydrated with 225 μL of distilled water and then allowed to react at 60° C. for 10 minutes to thus completely dissolve the liposome.
2) The liposome, saponin, sucrose in a HEPES buffer (pH 7.4), and distilled water were placed in a 96-well plate, as shown in Tables 8 and 9 below.
3) The reaction was carried out at room temperature and 300 rpm for 30 minutes using an orbital shaker.
4) 3 mL of RBCs were suspended in 10 mL of PBS and centrifuged at room temperature and 1500 rpm for 5 minutes, after which the supernatant was removed.
5) Steps 3) and 4) were repeated three times, and thus the RBCs were washed.
6) The RBC pellet was suspended in 1 mL of PBS and diluted to 1/100, followed by cell counting.
7) The RBCs were diluted to 1.5×10^9 cells/mL using PBS and dispensed at 3×10^7 cells/20 μL/well in a 96-well plate treated with the test material of 2) above.
8) The reaction was carried out at room temperature and 300 rpm for 1 hour using an orbital shaker.
9) The 96-well plate was centrifuged at room temperature and 1500 rpm for 5 minutes.
10) 50 μL of the supernatant was transferred to a new 96-well plate, and the absorbance was then measured at 415 nm.
11) Hemolysis (%) was calculated using the following equation.
as §1

| Compound | amount of saponin at which 60% hemolysis was observed [1] [µg] | amount of saponin at which 100% hemolysis was observed [1] [µg] | amount of saponin at which 100% hemolysis was observed [2] [µg] |
| --- | --- | --- | --- |
| C[C@@H]1CC[C@@]2(OC1)O[C@H]1C[C@H]3[C@@H]4CC=C5C[C@@H](O[C@@H]6O[C@H](CO)[C@@H](O[C@@H]7O[C@@H](C)[C@H](O[C@@H]8O[C@@H](C)[C@H](O)[C@@H](O)[C@H]8O)[C@@H](O)[C@H]7O)[C@H](O)[C@H]6O[C@@H]6O[C@@H](C)[C@H](O)[C@@H](O)[C@H]6O)CC[C@]5(C)[C@H]4CC[C@]3(C)[C@@]1(O)[C@@H]2C [Paris VII] | 1.25 | 5 | – |
| C[C@@H]1CC[C@@]2(OC1)O[C@H]1[C@@H](O)[C@H]3[C@@H]4CC[C@H]5C[C@@H](O[C@@H]6O[C@H](CO)[C@H](O[C@@H]7O[C@H](CO)[C@@H](O)[C@H](O[C@@H]8OC[C@@H](O)[C@H](O)[C@H]8O)[C@H]7O[C@@H]7O[C@H](CO)[C@H](O)[C@H](O[C@@H]8O[C@H](CO)[C@@H](O)[C@H](O)[C@H]8O)[C@H]7O)[C@H](O)[C@H]6O)[C@H](O)C[C@]5(C)[C@H]4CC[C@]3(C)[C@H]1[C@@H]2C [digitonin] | 2.5 | 10 | – |
| C[C@@H]1O[C@@H](O[C@H]2[C@H](O[C@H]3CC[C@@]4(C)[C@@H](CC[C@]5(C)[C@@H]4CC=C4[C@@H]6CC(C)(C)CC[C@]6(C(=O)O)CC[C@]45C)[C@]3(C)CO)OC[C@H](O)[C@@H]2O)[C@H](O)[C@H](O)[C@H]1O [α-hederin] | 1.25 | 10 | – |
| QS21 | – | – | 2.5 |
